Source: PMC8555909, “Identification of CYP 2A6 inhibitors in an effort to mitigate the harmful effects of the phytochemical nicotine” (Journal of cancer metastasis and treatment, 2021)

Target: T1, human CYP2A6 enzyme (cytochrome P450 2A6) (Homo sapiens, UniProt P11509)
T1 construct: purchased Life Technologies PV6140; host or cells: insect cells (baculosomes)
T1 sequence (P11509 1-494): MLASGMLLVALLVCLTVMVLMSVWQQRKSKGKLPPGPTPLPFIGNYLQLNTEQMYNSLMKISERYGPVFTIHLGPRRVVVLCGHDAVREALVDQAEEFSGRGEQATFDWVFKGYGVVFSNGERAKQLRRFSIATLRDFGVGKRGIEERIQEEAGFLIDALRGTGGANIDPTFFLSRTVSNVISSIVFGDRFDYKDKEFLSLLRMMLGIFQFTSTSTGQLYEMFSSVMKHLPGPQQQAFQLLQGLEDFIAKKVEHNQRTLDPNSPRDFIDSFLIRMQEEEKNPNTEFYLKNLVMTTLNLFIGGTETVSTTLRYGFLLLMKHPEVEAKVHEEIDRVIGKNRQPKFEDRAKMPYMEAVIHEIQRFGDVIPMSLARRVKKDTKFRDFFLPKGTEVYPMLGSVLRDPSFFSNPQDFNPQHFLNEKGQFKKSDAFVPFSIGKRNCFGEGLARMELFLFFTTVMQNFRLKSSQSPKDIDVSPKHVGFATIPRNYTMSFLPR
Test: P450 2A6 inhibition assay (Vivid CYP450 Screening Kit, baculosomes)
Format: biochemical
Details: for IC50 of P450 2A6 inhibition (in words): dose-response curve; for IC50: microsomes from insect cells expressing human CYP2A6, 10 min pre-incubation, 2 h reaction at room temperature, highest concentration in dose-response curves 40 μM, triplicates; for P450 2A6 inhibition activity (in words): screening at 10 μM followed by dose-response curve
Description: Cytochrome P450 2A6 (Cyp2A6) activity was determined using the Vivid CYP450 Screening Kit (Life Technologies, catalog #PV6140) according to the manufacturer’s instructions. Briefly, a master pre-mix containing baculosomes and regeneration system was prepared using 0.5× Vivid reaction buffer II. The test compounds were dissolved in dimethyl sulfoxide (DMSO) at a concentration of 100 mM. From the stock solutions, each compound was serially diluted in 0.5× Vivid reaction buffer II to make working stocks of 100 μM, 50 μM, 25 μM and so on up to 10 dilutions. It is essential to dilute the DMSO at least 1000-fold when making the working dilutions to prevent its interference with the enzyme activity. An initial high-throughput screening was performed at 10 μM concentration for each compound. For the dose-response curve determination, in a 96-well plate, 40 μL of the diluted solutions of each test compound were added to each well, followed by 50 μl of the master pre-mix, before incubation for 10 min at room temperature. A 10× mixture of Vivid substrate (reconstituted with acetonitrile) and NADP^+ was then prepared. At the end of the incubation period, 10 μL of this solution was added to each well to start the reaction. After 2 hours of incubation in the dark at room temperature, the plate was read at 415 nm on a plate reader (Synergy H1, Biotek). For a positive inhibition control, tranylcypromine (Sigma-Aldrich, cat. #P8511) was used at a final concentration of 100 μM. For a negative (no inhibitor) control, a 1:1000 dilution of pure DMSO in 0.5× Vivid reaction buffer was used. Each concentration in the dose-response curve was set up in triplicates, and each data point was the average of triplicate wells. The % inhibition was calculated using the following equation. %Inhibition=(1−X−B/A−B)*100 where X is the fluorescence observed in presence of the test compound; A is the fluorescence observed in the absence of an inhibitor (no inhibitor control); and B is the fluorescence observed for the positive control. For graphing purposes, percent inhibition vs. anti-log[drug concentration] was plotted. A logistic sigmoidal model was used to fit the data and obtain IC50 values using Graphpad Prism software.
The syntheses of compounds 1 to 7 [Figure 1] were accomplished using the synthetic Schemes 1 and 2. […] Nicotine-mimicking compounds containing imidazole or methyl substituted imidazole side chains with varied sizes of 1–3 carbon alkyl spacers at position 3 of the pyridine ring were synthesized using Scheme 1 (compounds 1, 4 and 7). Based on our previous findings that acetylenic substituents can interact with the P450 active site amino acids and lead to mechanism-based inhibition, triple bond in the form of propargyl ether was incorporated in a second series of compounds at positions 2, 3 or 4 of the pyridine ring as an ether linkage (compounds 3, 6 and 2, respectively). Positions 2 and 4 were used to investigate whether substituted compounds at those positions would show a difference in their inhibition activities compared to the 3-position substituted compound. A longer spacer in between the propargyl ether and the 4-position of the pyridine ring was introduced to investigate whether a greater flexibility in the positioning of the key functional groups (pyridine ring and the alkyne moiety) in the binding site would be achieved. The Vivid CYP450 Screening Kit (Life Technologies, catalog #PV6140) was used for the P450 2A6 inhibition assays. An initial high-throughput screening was performed at a 10 μM concentration followed by a dose-response curve determination.
The inhibition studies on our compounds were performed using a Vivid CYP2A6 Kit (Life Technologies, catalog #PV6140). This kit uses microsomes from insect cells stably expressing human CYP2A6 enzyme. […]

IC50 of P450 2A6 inhibition (in words)	IC50 [µM]	P450 2A6 inhibition activity (in words)	SMILES
	> 40	much lower inhibition	C#CCOc1ccncc1 [Compound 2, 4-(prop-2-yn-1-yloxy)pyridine]
		did not inhibit	C#CCOc1ccccn1 [Compound 3, 2-(prop-2-yn-1-yloxy)pyridine]
single digit micromolar	5.02		c1cncc(Cn2ccnc2)c1 [Compound 4, 3-((1H-imidazol-1-yl)methyl)pyridine]
	> 40	moderate inhibition activity	Cc1nccn1Cc1cccnc1 [Compound 7, 3-[(2-methyl-1H-imidazol-1-yl)methyl] pyridine]

Second part, the compound before the results:

SMILES	IC50 of P450 2A6 inhibition (in words)	IC50 [µM]	P450 2A6 inhibition activity (in words)
Cc1nccn1CCCc1cccnc1 [Compound 1]	single digit micromolar	9.03	
C#CCOCCCc1ccncc1 [Compound 5, 4-(3-(prop-2-yn-1-yloxy)propyl)pyridine]		> 40	moderate inhibition activity
C#CCOCc1cccnc1 [Compound 6, 3-((prop-2-yn-1-yloxy)methyl)pyridine]	single digit micromolar	1	
